Reference: patent US20100022559A1, “BISOXIMES AS FUNGICIDES” (BAYER CROPSCIENCE AG, priority 2006, published 2010)

Test: logP determination by HPLC on a reversed-phase column (C 18), EEC Directive 79/831 Annex V.A8
Format: physicochemical
Description: The stated logP values were determined in accordance with EEC Directive 79/831 Annex V.A8 by HPLC (high performance liquid chromatography) on a reversed-phase column (C 18). Temperature: 43° C.

logP (value marked [b]) | logP (method marked [b] in Table 1) | Compound | further results
– | – | Cc1cccc(C(=NOCC(C)(C)CON=C(c2cccc(C)n2)C2CC2)C2CC2)n1 (single isomer, unassigned) [compound 282] | logP (value marked [a]): 3.75^[a] (isomer A)
2.37^[b] (isomer A) | – | C=C(CON=C(C)c1nc(C)ccc1C)CON=C(C)c1nc(C)ccc1C (single isomer, unassigned) [compound 307] | –
1.84^[b] | – | C=C(CON=C(C)c1nc(C)ccc1C)CON=C(C)c1nc(C)ccc1C (single isomer, unassigned) [compound 308] | logP (value marked [c]): 2.94^[c]
3.65^[b] (isomer B) | – | CCC(=NOCCCCON=C(C)c1cccc(C)n1)c1ncccc1C (single isomer, unassigned) [compound 328] | –
5.46^[b] (isomer A) | – | CC(=NOCCCCON=C(CC(C)C)c1cccc(C)n1)c1cccc(C)n1 (single isomer, unassigned) [compound 331] | –
1.71^[b] (isomer B) | – | C=C(CON=C(C)c1ccnc(C)c1)CON=C(C)c1cccc(C)n1 (single isomer, unassigned) [compound 362] | –
3.56^[b] (isomer B) | – | CC(=NOCCCCON=C(C)c1sc(C)nc1C)c1cccc(C)n1 (single isomer, unassigned) [compound 374] | –
5.84^[b] (isomer A) | – | CC(=NOCCCCCCON=C(C)c1nc(C)c(C)s1)c1cccc(C)n1 (single isomer, unassigned) [compound 389] | –
3.15^[b] (isomer B) | – | C=C(CON=C(C)c1ccccn1)CON=C(C)c1cccc(C)n1 (single isomer, unassigned) [compound 400] | –
4.91^[b] (isomer B) | – | C=C(CON=C(C)c1cccc(C)n1)CON=C(C)c1ccc(Cl)s1 (single isomer, unassigned) [compound 473] | –
3.11^[b] (isomer B) | – | C=C(CON=C(C)c1cccc(C)n1)CON=C(C)c1ncccc1C (single isomer, unassigned) [compound 478] | –
4.91^[b] (isomer A) | – | C=CCCC(=NOCCCCCCON=C(C)c1cccc(C)n1)c1ncccc1C (single isomer, unassigned) [compound 523] | –
5.65^[b] (isomer B) | – | C=CCCC(=NOCCCCCCON=C(C)c1cccc(C)n1)c1ncccc1C (single isomer, unassigned) [compound 524] | –
3.65^[b] (isomer A) | – | CC(=NOCCCCON=C(c1cccc(C)n1)C(C)C)c1cccc(C)n1 (single isomer, unassigned) [compound 525] | –
4.91^b](isomer A) | – | CC(=NOCCCCCCON=C(c1cccc(C)n1)C(C)C)c1cccc(C)n1 (single isomer, unassigned) [compound 526] | –
6.03^[b](isomer B) | – | CC(=NOCCCCCCON=C(c1cccc(C)n1)C(C)C)c1cccc(C)n1 (single isomer, unassigned) [compound 527] | –
2.98^[b] (isomer )A | – | CCC(=NOCCCCON=C(C)c1cccc(C)n1)c1ncccc1C (single isomer, unassigned) [compound 529] | –
5.48^[b] (isomer B) | – | CC(=NOCCCCON=C(CC(C)C)c1cccc(C)n1)c1cccc(C)n1 (single isomer, unassigned) [compound 530] | –
4.97^b] (isomer )A | – | CC(=NOCCCCCCON=C(Cc1ccccc1)c1ncccc1C)c1cccc(C)n1 (single isomer, unassigned) [compound 531] | –

logP (value marked [b]) | logP (method marked [b] in Table 1) | Compound | further results
3.99^b] (isomer )A | – | CCC(=NOCCCCCCON=C(C)c1cccc(C)n1)c1ncccc1C (single isomer, unassigned) [compound 532] | –
1.74^[b] (isomer A) | – | C=C(CON=C(C)c1ccnc(C)c1)CON=C(C)c1cccc(C)n1 (single isomer, unassigned) [compound 533] | –
3.65^[b] (isomer A) | – | C=C(CON=C(C)c1cccc(C)n1)CON=C(CCC)c1ncccc1C (single isomer, unassigned) [compound 534] | –
– | 4.46^[b] (isomer B) | C=C(CON=C(C)c1cccc(C)n1)CON=C(CCC)c1ncccc1C (single isomer, unassigned) [compound 535] | –
– | 3.19^[b] (isomer A) | C=C(CON=C(C)c1cccc(C)n1)CON=C(c1cccc(C)n1)C1CC1 (single isomer, unassigned) [compound 536] | –
– | 3.46^[b] (isomer B) | C=C(CON=C(C)c1cccc(C)n1)CON=C(c1cccc(C)n1)C1CC1 (single isomer, unassigned) [compound 537] | –
– | 4.86^[b] v(isomer B) | CC(=NOCCCCCCON=C(C)c1nc(C)c(C)s1)c1cccc(C)n1 (single isomer, unassigned) [compound 539] | –
– | 3.56^[b] (isomer A) | CC(=NOCCCCON=C(C)c1sc(C)nc1C)c1cccc(C)n1 (single isomer, unassigned) [compound 540] | –
– | 3.99^[b] (isomer A) | CC(=NOCCCCCCON=C(C)c1sc(C)nc1C)c1cccc(C)n1 (single isomer, unassigned) [compound 542] | –
– | 4.74^[b] (isomer B) | CC(=NOCCCCCCON=C(C)c1sc(C)nc1C)c1cccc(C)n1 (single isomer, unassigned) [compound 543] | –
– | 3.00^b] (Isomer A) | C=C(CON=C(C)c1cccc(C)n1)CON=C(C)c1sc(C)nc1C (single isomer, unassigned) [compound 544] | –
– | 3.58^[b] (isomer B) | C=C(CON=C(C)c1cccc(C)n1)CON=C(C)c1sc(C)nc1C (single isomer, unassigned) [compound 545] | –
– | 3.85^[b] (isomer A) | CCCC(=NOCC(C)CON=C(C)c1cccc(C)n1)c1ncccc1C (single isomer, unassigned) [compound 548] | –
– | 4.68^[b] (isomer B) | CCCC(=NOCC(C)CON=C(C)c1cccc(C)n1)c1ncccc1C (single isomer, unassigned) [compound 549] | –
– | – | Cc1cccc(C(=NOCC(C)CON=C(c2ccccc2)c2cccc(C)n2)c2ccccc2)n1 (single isomer, unassigned) [compound 661] | logP (method marked [a] in Table 1): 4.10^[a] (isomer A)
– | 2.16^[b] (isomer B) | C=C(CON=Cc1cccc(C)n1)CON=Cc1cccc(C)n1 (single isomer, unassigned) [compound 662] | –
– | 2.13^[b] (isomer A) | C=C(CON=Cc1cccc(C)n1)CON=Cc1cccc(C)n1 (single isomer, unassigned) [compound 664] | –
– | – | CCC(=NOCC(C)CON=C(CC)c1cc(C)cc(C)n1)c1cc(C)cc(C)n1 (single isomer, unassigned) [compound 691] | logP (method marked [a] in Table 1): 2.75^[a] (isomer A)
– | 2.57^[b] | CCC(CON=C(C)c1nc(C)ccc1C)CON=C(C)c1nc(C)ccc1C (single isomer, unassigned) [compound 750] | logP (method marked [c] in Table 1): 4.46^[c]

logP (value marked [b]) | logP (method marked [b] in Table 1) | Compound | further results
– | 3.19^[b] | CCC(CON=C(C)c1nc(C)ccc1C)CON=C(C)c1nc(C)ccc1C (single isomer, unassigned) [compound 751] | logP (method marked [c] in Table 1): 5.54^[c]
– | 2.89^[b] | CC(=NOCC(CON=C(C)c1nc(C)ccc1C)C(C)C)c1nc(C)ccc1C (single isomer, unassigned) [compound 752] | logP (method marked [c] in Table 1): 4.85^[c]
– | 2.91^[b] | CC(=NOCC(CON=C(C)c1nc(C)ccc1C)c1ccccc1)c1nc(C)ccc1C (single isomer, unassigned) [compound 754] | logP (method marked [c] in Table 1): 4.59^[c]
– | 3.62^[b] | CC(=NOCC(CON=C(C)c1nc(C)ccc1C)c1ccccc1)c1nc(C)ccc1C (single isomer, unassigned) [compound 755] | logP (method marked [c] in Table 1): 5.45^[c]
– | 3.22^[b] | CC(=NOCC(CON=C(C)c1nc(C)ccc1C)C(C)(C)C)c1nc(C)ccc1C (single isomer, unassigned) [compound 756] | logP (method marked [c] in Table 1): 5.20^[c]
– | 5.09^[b] | CC(=NOCC(CON=C(C)c1nc(C)ccc1C)C(C)(C)C)c1nc(C)ccc1C (single isomer, unassigned) [compound 757] | logP (method marked [c] in Table 1): 6.38^[c]
– | 2.13^[b] | CC(=NOCCC(C)ON=C(C)c1nc(C)ccc1C)c1nc(C)ccc1C (single isomer, unassigned) [compound 758] | logP (method marked [c] in Table 1): 4.03^[c]
– | 3.12^[b] | CC(=NOCCC(C)ON=C(C)c1nc(C)ccc1C)c1nc(C)ccc1C (single isomer, unassigned) [compound 759] | logP (method marked [c] in Table 1): 5.02^[c]
2.72^[b] | – | CC(=NOCC1(CON=C(C)c2nc(C)ccc2C)CCC1)c1nc(C)ccc1C (single isomer, unassigned) [compound 760] | logP (method marked [c] in Table 1): 4.72^[c]
3.77^[b] | – | CC(=NOCC1(CON=C(C)c2nc(C)ccc2C)CCC1)c1nc(C)ccc1C (single isomer, unassigned) [compound 761] | logP (value marked [c]): 5.84^[c]
3.04^[b] | – | CC(=NOCC1(CON=C(C)c2nc(C)ccc2C)CCCC1)c1nc(C)ccc1C (single isomer, unassigned) [compound 762] | logP (value marked [c]): 5.14^[c]
2.17^[b] | – | CC(=NOCC1(CON=C(C)c2nc(C)ccc2C)CC1)c1nc(C)ccc1C (single isomer, unassigned) [compound 764] | logP (value marked [c]): 4.00^[c]
3.15^[b] | – | CC(=NOCC1(CON=C(C)c2nc(C)ccc2C)CC1)c1nc(C)ccc1C (single isomer, unassigned) [compound 765] | logP (value marked [c]): 4.95^[c]
5.08^[b] (isomer A) | – | CC(=NOC/C=C/CON=C(C)c1nc(C)c(C)s1)c1nc(C)c(C)s1 (single isomer, unassigned) [compound 766] | –
4.92^[b] (isomer B) | – | CC(=NOC/C=C/CON=C(C)c1nc(C)c(C)s1)c1nc(C)c(C)s1 (single isomer, unassigned) [compound 767] | –
1.68^[b] (isomer A) | – | COCc1nc(C(N)=NOC/C=C/CON=C(N)c2nc(COC)c(C)c(COC)n2)nc(COC)c1C (single isomer, unassigned) [compound 768] | –
1.75^[b] (isomer B) | – | COCc1nc(C(N)=NOC/C=C/CON=C(N)c2nc(COC)c(C)c(COC)n2)nc(COC)c1C (single isomer, unassigned) [compound 769] | –
2.55^[b] (isomer B) | – | Cc1cc(C)nc(C(N)=NOC/C=C/CON=C(N)c2cc(C)cc(C)n2)c1 (single isomer, unassigned) [compound 770] | –
